This note sets out measurements from patent US4710500A, “1-(4'-fluorophenyl)-3,5-substituted indoles useful in the treatment of psychic disorders and pharmaceutical compositions thereof” (H. Lundbeck A/S, priority 1985, dated 1987).

In data set [1] the test system is methylphenidate-induced gnawing. The experiment in a line: Methylphenidate antagonism. The following applies: for ED50: Mus musculus. The data set is classed as in vivo, mice.
Data set [2] can be described thus: Catalepsy. In kind it is in vivo, rat.
The target in data set [3] is T1, 5-HT2 receptor (Rattus norvegicus, UniProt P14842).
T1 construct: from tissue; host or cells: living rats (in vivo), CNS
T1 sequence (P14842 whole entry): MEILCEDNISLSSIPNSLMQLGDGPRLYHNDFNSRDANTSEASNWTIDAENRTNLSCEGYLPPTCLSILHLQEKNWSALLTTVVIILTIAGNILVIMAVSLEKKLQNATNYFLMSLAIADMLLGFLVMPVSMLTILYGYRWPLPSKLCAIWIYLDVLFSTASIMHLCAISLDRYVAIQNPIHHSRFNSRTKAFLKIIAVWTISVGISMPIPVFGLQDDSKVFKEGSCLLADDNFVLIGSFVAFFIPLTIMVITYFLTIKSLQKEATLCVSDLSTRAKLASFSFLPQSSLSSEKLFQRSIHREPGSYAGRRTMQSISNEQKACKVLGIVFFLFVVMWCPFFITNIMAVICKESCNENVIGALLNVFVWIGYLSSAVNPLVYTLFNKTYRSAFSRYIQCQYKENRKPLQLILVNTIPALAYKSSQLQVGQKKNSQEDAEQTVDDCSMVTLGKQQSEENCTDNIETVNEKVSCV
In words: Quipazine inhibition (head twitches). The following applies: sc 2 hours before quipazine 15 umol/kg sc. The data set is classed as in vivo. How it is done:
Quipazine and a number of other compounds, which increase 5-HT2 receptor activity in the CNS, induce a characteristic rapid shake (twitch) of the head. This response is inhibited by 5-HT2 receptor antagonists (Vetulani et al. 1980, Arnt et al. 1984).
The test compound or saline is injected subcutaneously 2 hours before subcutaneous injection of quipazine hemimalecate (15umol/kg). At least 3 dose groups, each consisting of at least 4 rats, are used. The rats are individually placed in observation cages (12×25 cm) and the number of head twitches are counted 30-40 min after quipazine administration. Inhibition of head twitches is expressed in per cent of the number of head twitches in the control group. ED 50 values are calculated by log-probit analysis.
Vetulani, J., B.B. Beduarczyk, K. Reichenberg and A. Rokost: Neuropharmacology 19, 155-158, […].
(§1) Arnt, J., J. Hyttel and J.-J. Larsen: Acta pharmacol. et toxicol. 55, 363-372, 1984.

Data set [4] has as its target T2, dopamine (DA) D-2 receptors (Rattus norvegicus, UniProt P61169).
T2 construct: DA D-2 receptors in rat striatal membranes; from tissue; host or cells: rat striatal membranes
In words: 3H-spiroperidol binding, dopamine D-2 receptors in rat striatal membranes. How it is done: (§2) 4. ^3 H-spiroperidol bindings
The affinity of compounds to dopamine (DA) D-2 receptors and serotomin2 (5-HT2) receptors was determined by in vitro receptor binding technique.
Arnt, J., J. Hyttel and J.-J. Larsen: Acta pharmacol. et toxicol.

Data set [5] deals with T3, serotomin2 (5-HT2) receptors (Rattus norvegicus, UniProt P14842).
T3 construct: 5-HT2 receptors in rat cortical membranes; from tissue; host or cells: rat cortical membranes
T3 sequence (P14842 whole entry): as above
In words: 3H-spiroperidol binding, 5-HT2 receptors in rat cortical membranes. The note with it: in vitro, read-out: 3H-Spiroperidol bindings 5-HT2 receptors IC50. How it is done:
as §2
The affinity of compounds to dopamine (DA) D-2 receptors and serotomin2 (5-HT2) receptors was determined by in vitro receptor binding technique. Binding of ^3 H-spiroperidol to DA D-2 receptors in rat striatal membranes and to 5-HT2 receptors in rat cortical membranes was determined as described in detail by Arnt et al. (1984).
as §1

The conditions of data set [6]: i.v., mice; compared with known neuroleptics.
Data set [7] can be described thus: in vivo. The note with it: mouse, iv.
Data set [8] is described as follows: pharmacological testing (general statements). The note with it: result in words. How it is done:
The compounds of Formula I were tested according to reliable and well recognized pharmacological tests as follows: […]

[9] abbreviates: rat striatal membranes, in vitro, read-out: 3H-Spiroperidol bindings DA-2 receptors IC50.
[10] abbreviates: Rattus norvegicus, sc, 24 h, read-out: Catalep. ED50 (sc) 24 h.

Like-named read-outs stand apart in the source and are kept apart here.

T2 sequence (P61169 whole entry): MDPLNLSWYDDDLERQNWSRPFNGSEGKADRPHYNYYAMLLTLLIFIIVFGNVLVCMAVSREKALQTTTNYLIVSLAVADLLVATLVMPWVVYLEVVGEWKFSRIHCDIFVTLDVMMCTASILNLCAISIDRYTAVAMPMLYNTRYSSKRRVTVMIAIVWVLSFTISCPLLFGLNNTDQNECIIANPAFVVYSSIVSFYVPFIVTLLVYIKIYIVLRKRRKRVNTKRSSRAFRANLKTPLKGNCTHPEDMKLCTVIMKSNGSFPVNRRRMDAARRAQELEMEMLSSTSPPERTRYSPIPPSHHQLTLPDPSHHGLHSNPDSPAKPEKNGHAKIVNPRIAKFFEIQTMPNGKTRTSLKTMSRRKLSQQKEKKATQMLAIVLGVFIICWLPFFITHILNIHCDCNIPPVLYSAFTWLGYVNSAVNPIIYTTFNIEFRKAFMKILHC

In the case of `OCCN1CCN(c2cn(-c3ccc(F)cc3)c3ccc(C(F)(F)F)cc23)CC1` [Lu 21-152, 1-(4'-Flurophenyl)-3-(4-(2-hydroxyethyl)-piperazino)-5-trifluoromethyl-1H-indole], the ED50 (as a rule, the dose at which the effect has come halfway, by size or by number of responders) in data set [1] (ip, i.p. test substance, mice, methylphenidate s.c. 60 mg/kg, read-out: MePh Antg. ED50(ip)) is 0.11 µmol/kg; in data set [2] (read-out: Catalep. ED50(po) 1-6 h, po, rat, 1-6 h) it was 0.17 µmol/kg; in data set [2] (read-out: Catalep. ED50(po) 24 h, po, rat, 24 h) it was 0.28 µmol/kg. Further, in data set [3], the “Qvipaz. inh. ED50(sc)” value is 0.023 µmol/kg. Moreover, the half-maximal inhibitory concentration (IC50) – broadly, the concentration that gives 50% inhibition – in data set [4] (setting [9]) was 2.8 nM; in data set [5], 7.4 nM. In addition, in data set [6], the acute toxicity entry was “comparatively low acute toxicity”. The LD50 – broadly, the dose at which mortality reaches 50% – in data set [7] turned out to be 147 µmol/kg.
In the case of `CN1CC=C(c2cn(-c3ccc(F)cc3)c3ccc([N+](=O)[O-])cc23)CC1` [Lu 22-135, 1-(4'-Fluorophenyl)-5-nitro-3-(1-methyl-1,2,3,6-tetrahydropyridin-4-yl)-1H-indole], the ED50 is 0.1 µmol/kg in data set [1] (ip, read-out: MePh Antg. ED50(ip)); 0.078 µmol/kg in data set [2] (Rattus norvegicus, po, read-out: Catalep. ED50(po) 1-6 h); over 0.89 µmol/kg in data set [2] (setting [10]). The “Qvipaz. inh. ED50(sc)” value in data set [3] was found to be 0.009 µmol/kg. The values for the concentration for half-maximal inhibition (IC50) in data set [4] and in data set [5] were 1.1 nM and 1.9 nM, respectively. Further, the acute toxicity result in data set [6] is recorded as “comparatively low acute toxicity”. Moreover, the LD50 in data set [7] amounted to 276 µmol/kg.
Turning to `CN1CCN(c2cn(-c3ccccc3)c3ccc(Cl)cc23)CC1` [Lu 23-015, 5-Chloro-3-(4-methylpiperazino)-1-phenyl-1H-indole, reference compound], in data set [1] (i.p. test substance, mice, methylphenidate s.c. 60 mg/kg), the “MePh Antg. ED50(ip)” value is 8.8 µmol/kg. Moreover, the “Catalep. ED50(po) 1-6 h” value in data set [2] (po, rat, 1-6 h) amounted to 12.0 µmol/kg. The “Catalep. ED50(po) 24 h” value in data set [2] (po, rat, 24 h) is over 15 µmol/kg. For the same compound, in data set [3], the “Qvipaz. inh. ED50(sc)” value stood at 0.062 µmol/kg. In addition, the values for the IC50 in data set [4] (setting [9]) and in data set [5] were 12 nM and 3.9 nM, respectively. Further, in data set [8], the “effects in the pharmacological testing” value is on record as “without interesting effects”.
As to `OCCN1CC=C(c2c[nH]c3ccc(Cl)cc23)CC1` [Lu 23-143, 5-chloro-3-(1-(2-hydroxyethyl)-1,2,3,6-tetrahydropyrid-4-yl)indol, reference compound], the ED50 was 72 µmol/kg in data set [1] (sc, read-out: MePh Antg. ED50 (sc)); over 18 µmol/kg in data set [2] (setting [10]); over 18 µmol/kg in data set [2] (Rattus norvegicus, sc, read-out: Catalep. ED50 (sc) 1-6 h). The “Qvipaz. inh. ED50(sc)” value in data set [3] was 4.5 µmol/kg. The “effects in the pharmacological testing” value in data set [8] is “almost inactive compared with the compounds of Formula I”.
